Source: patent US20240174618A1, “SUBSTITUTED (2-HETEROARYLOXYPHENYL)SULFONATES, SALTS THEREOF AND THEIR USE AS HERBICIDAL AGENTS” (Bayer Aktiengesellschaft, priority 2021, published 2024)

How the values were obtained:
Type in all cases: in vivo
[1] = tested on: Pharbitis purpurea (PHBPU); experiment: C. Herbicidal pre-emergence efficacy, PHBPU; conditions: scored after about 3 weeks
Excerpt: (§1) Seeds of monocotyledonous and dicotyledonous weed plants and crop plants were placed in plastic or organic planting pots and covered with soil. The compounds of the invention, formulated in the form of wettable powders (WP) or as emulsion concentrates (EC), were then applied to the surface of the covering soil as aqueous suspension or emulsion with addition of 0.5% additive at a water application rate equivalent to 600 l/ha (converted). After the treatment, the pots were placed in a greenhouse and kept under good growth conditions for the test plants. After about 3 weeks, the efficacy of the preparations was scored visually in comparison with untreated controls as percentages. For example, • 100% efficacy=plants have died, • 0% efficacy=like untreated control plants.
(§2) Tables C1a to C14b below show the effects of selected compounds of the general formula (I) according to table 1 on various harmful plants at an application rate corresponding to 320 g/ha or less, which were obtained by the experimental procedure mentioned above.

[2] = tested on: Alopecurus myosuroides (ALOMY); experiment: A. Herbicidal pre-emergence efficacy, ALOMY; conditions: scored visually after about 3 weeks vs untreated controls
Procedure, shortened: (§3)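 Pre-emergence soil-surface spray in sandy loam pots, WP/EC in water plus 0.5% additive, 600 L/ha. Visual % damage rating after about 3 weeks in greenhouse vs. untreated; 0% = control-like, 100% = dead plants. Rates up to 1280 g/ha.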

[3] = tested on: Digitaria sanguinalis (DIGSA); experiment: E. Herbicidal post-emergence efficacy, DIGSA
Description: Seeds of monocotyledonous and dicotyledonous weeds and crop plants were placed in sandy loam in plastic or organic planting pots, covered with soil and cultivated in a greenhouse under controlled growth conditions. 2 to 3 weeks after sowing, the test plants were treated at the one-leaf stage. The compounds of the invention, formulated in the form of wettable powders (WP) or as emulsion concentrates (EC), were then sprayed onto the green parts of the plants as aqueous suspension or emulsion with addition of 0.5% additive at a water application rate of 600 l/ha (converted). After the test plants had been kept in the greenhouse under optimum growth conditions for about 3 weeks, the activity of the preparations was rated visually in comparison to untreated controls.
For example, • 100% efficacy=plants have died, • 0% action=like untreated control plants.
Tables E1a to E12b below show the effects of selected compounds of the general formula (I) according to table 1 on various harmful plants at an application rate corresponding to 320 g/ha or less, which were obtained by the experimental procedure mentioned above.

[4] = tested on: Avena fatua (AVEFA); experiment: C. Herbicidal pre-emergence efficacy, AVEFA; conditions: 320 g/ha, scored after about 3 weeks
Excerpt: as §1, §2

[5] = tested on: Abutilon theophrasti (ABUTH); experiment: A. Herbicidal pre-emergence efficacy, ABUTH; conditions: scored visually after about 3 weeks vs untreated controls
Procedure, shortened: as §3

[6] = tested on: Lolium rigidum (LOLRI); experiment: B. Herbicidal post-emergence efficacy, LOLRI
Procedure, shortened: (§4)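 First, seeds were sown in sandy loam and grown 2 to 3 weeks under controlled greenhouse conditions. Next, foliage at the one-leaf stage received the formulated compound in water with 0.5% additive (600 L/ha, 1280 g/ha or less). Finally, damage was rated visually after about 3 weeks against untreated plants.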

[7] = tested on: Matricaria inodora (MATIN); experiment: C. Herbicidal pre-emergence efficacy, MATIN; conditions: scored after about 3 weeks
Procedure, shortened: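 Pre-emergence test: formulated compounds sprayed as aqueous suspension or emulsion with 0.5% additive at 600 l/ha onto soil covering sown seeds, at rates corresponding to 320 g/ha or less. After about 3 weeks in greenhouse, efficacy scored visually as percent versus untreated controls (100% = plants dead).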

[8] = tested on: Alopecurus myosuroides (ALOMY); experiment: B. Herbicidal post-emergence efficacy, ALOMY; conditions: rated visually after about 3 weeks
Procedure, shortened: as §4

[9] = tested on: Zea mays (ZEAMX); experiment: D. Pre-emergence effect on useful plants, ZEAMX; conditions: useful plant, application rate 80 g/ha
Procedure, shortened: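 Seeds sown in pots and covered with soil; WP or EC formulations sprayed on the soil surface as aqueous suspension/emulsion with 0.5% additive at 600 l/ha water. Plants grown in greenhouse; crop damage scored visually after about 3 weeks as % versus untreated controls (100% = dead, 0% = like control).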

[10] = tested on: Zea mays (ZEAMX); experiment: F. Post-emergence effect on useful plants, ZEAMX; conditions: useful plant, application rate 80 g/ha
Procedure, shortened: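 Crop plants grown in sandy loam in the greenhouse were sprayed at the one-leaf stage, 2-3 weeks after sowing, with WP or EC formulations plus 0.5% additive at 600 l/ha water. Damage was scored visually after about 3 weeks against untreated controls (0% = like control, 100% = dead).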

Row | SMILES | Pre-emergence efficacy against PHBPU ([1]; 80 g/ha) [%] | Pre-emergence efficacy against PHBPU ([1]; 320 g/ha) [%] | Pre-emergence efficacy against ALOMY ([2]; 320 g/ha) [%] | Pre-emergence efficacy against ALOMY ([2]; 1280 g/ha) [%] | Post-emergence efficacy against DIGSA in % ([3]; application rate 80 g/ha) [%] | Post-emergence efficacy against DIGSA in % ([3]; application rate 320 g/ha) [%] | Pre-emergence efficacy against AVEFA [4] [%] | Pre-emergence efficacy against ABUTH ([5]; 80 g/ha) [%] | Pre-emergence efficacy against ABUTH ([5]; 320 g/ha) [%] | Pre-emergence efficacy against ABUTH ([5]; 1280 g/ha) [%] | Post-emergence efficacy against LOLRI ([6]; 320 g/ha) [%] | Post-emergence efficacy against LOLRI ([6]; 1280 g/ha) [%] | Pre-emergence efficacy against MATIN ([7]; 80 g/ha) [%] | Pre-emergence efficacy against MATIN ([7]; 320 g/ha) [%] | Post-emergence efficacy against ALOMY in % ([8]; 320 g/ha) [%] | Post-emergence efficacy against ALOMY in % ([8]; 1280 g/ha) [%] | Pre-emergence efficacy against ZEAMX in % [9] [%] | Post-emergence efficacy against ZEAMX in % [10] [%]
1 | O=S(=O)(CCCC(F)(F)F)Oc1ccccc1Oc1ncc(Cl)cn1 [Example I-10] | 100 | 100 | 90 | 90 | 90 | 90 | 90 | 100 | 100 | 100 | 90 | 100 | 90 | 100 |  |  |  | 
2 | O=S(=O)(CCCC(F)(F)F)Oc1c(F)cccc1Oc1ncc(F)cn1 [Example I-42] | 100 | 100 | 100 | 100 | 90 | 90 | 100 | 100 | 100 | 100 |  |  | 90 | 100 | 100 | 100 |  | 
3 | O=S(=O)(CC1CC1)Oc1ccccc1Oc1ncc(Cl)cn1 [Example I-23] |  | 80 |  | 90 |  | 100 | 90 | 90 | 90 | 100 |  |  |  | 100 | 90 | 90 | 0 | 20
4 | O=S(=O)(CCCCl)Oc1ccccc1Oc1ncc(F)cn1 [Example I-5] |  | 80 |  | 90 |  |  | 80 | 100 | 100 | 100 |  |  |  | 90 |  | 100 | 20 | 
5 | O=S(=O)(CCC(F)(F)F)Oc1c(F)cccc1Oc1ncc(F)cn1 [Example I-47] | 90 | 100 | 100 | 100 |  |  | 100 | 100 | 100 | 100 |  |  | 90 | 100 | 90 | 100 |  | 
6 | O=S(=O)(CCC(F)(F)F)Oc1ccccc1Oc1ncc(Cl)cn1 [Example I-8] |  | 80 |  | 90 | 80 | 90 | 90 | 90 | 90 | 100 |  | 90 | 80 | 80 |  |  |  | 
7 | O=S(=O)(CC1CC(F)(F)C1)Oc1c(F)cccc1Oc1ncc(Cl)cn1 [Example I-53] | 100 | 100 |  | 100 | 90 | 90 | 80 | 100 | 100 | 100 |  | 90 |  | 90 | 90 | 90 |  | 
8 | O=S(=O)(CCCCl)Oc1c(F)cccc1Oc1ncc(Cl)cn1 [Example I-14] |  |  | 90 | 100 |  |  | 80 | 100 | 100 | 100 |  | 100 |  |  | 100 | 100 |  | 
9 | O=S(=O)(CCCCl)Oc1ccccc1Oc1ncc(Cl)cn1 [Example I-2] |  | 90 | 100 | 100 |  |  | 100 | 100 | 100 | 100 |  | 90 |  | 100 | 90 | 90 |  | 20
10 | O=S(=O)(CCC(F)(F)F)Oc1c(F)cccc1Oc1ncc(Cl)cn1 [Example I-48] | 100 | 100 | 90 | 90 |  | 100 | 100 | 90 | 100 | 100 | 90 | 90 | 100 | 100 |  | 90 | 0 | 0
